Reference: patent US20240318160A1 (Wisconsin Alumni Research Foundation, priority 2023, published 2024)

Legend:
Type in all cases: biochemical
[1] = test system: Streptochaeta angustifolia SaPTAL-b, wild type; experiment: TAL and PAL enzyme kinetics; conditions: PAL assay (L-Phe), pH 8.5, 30° C.
Experimental: (§1) A mixture containing 100 mM Tris-HCl (pH 8.5), 1% glycerol, and purified enzyme in a total volume of 50 μl was preincubated for 3 min at 30° C. […] The reactions were terminated by addition of 6N acetic acid (10 μl).
(§2) The kinetic parameters of the recombinant enzymes were determined using HPLC. Reaction mixtures containing 100 mM Tris-HCl (pH 8.5), 1% glycerol, and purified enzyme (0.15 μg for PAL assay and 1 μg for TAL assay) in a 50 μl total volume were preincubated for 3 min at 30° C. […] After 10 min and 20 min incubations for PAL and TAL assay, respectively, at 30° C., the reaction was terminated by addition of 6N acetic acid (10 μl). […] The products were quantified using calibration curves generated using authentic standards. Non-linear hyperbolic regression analyses were conducted using the Excel Solver tool to calculate Km and Vmax values.

[2] = test system: Joinvillea ascendens JaPAL (SEQ ID NO: 28) variant JaPAL^F140H_MUT16 (F140H plus PTAL-type residues at 70, 102, 110, 112, 121, 129, 135, 138, 267, 271, 279 …); experiment: TAL and PAL enzyme kinetics; conditions: PAL assay (L-Phe), pH 8.5, 30° C.
Experimental: (§3) To investigate the potential role of these residues in TAL activity, we generated two JaPAL mutant enzymes, one with PTAL-type substitutions in the 8 circle residues and the other with PTAL-type substitutions in both the circle and triangle residues (Table 4) in addition to the F140H mutation (JaPAL^F140H_MUT8 and JaPAL^F140H_MUT16, respectively).
as §1, §2

[3] = test system: Joinvillea ascendens JaPAL (SEQ ID NO: 28) variant JaPAL^F140H_MUT8 (F140H plus PTAL-type residues at 102, 112, 121, 138, 267, 444, 448, 500); experiment: TAL and PAL enzyme kinetics
Experimental: as §3, §1, §2

[4] = test system: Joinvillea ascendens JaPAL^F140H_MUT8 variant A448S; experiment: TAL and PAL enzyme kinetics; conditions: PAL assay (L-Phe), pH 8.5, 30° C.
Experimental: (§4) To determine which of the 8 circle residues are essential in the conversion of PAL enzymes to PTAL enzymes (FIG. 3C), we mutated, one by one, each one of these 8 residues back to the PAL type in JaPAL^F140H_MUT8 and determined their effects on catalytic efficiency.
as §1, §2

[5] = test system: Joinvillea ascendens JaPAL^F140H_MUT8 variant G121A; experiment: TAL and PAL enzyme kinetics; conditions: PAL assay (L-Phe), pH 8.5, 30° C.
Experimental: as §4, §1, §2

[6] = test system: Joinvillea ascendens JaPAL^F140H_MUT8 variant I102V; experiment: TAL and PAL enzyme kinetics; conditions: PAL assay (L-Phe), pH 8.5, 30° C.
Experimental: as §4, §1, §2

[7] = test system: Joinvillea ascendens JaPAL^F140H_MUT8 variant I122S (in Table 3; I112S in text); experiment: TAL and PAL enzyme kinetics; conditions: PAL assay (L-Phe), pH 8.5, 30° C.
Experimental: as §4, §1, §2

[8] = test system: Joinvillea ascendens JaPAL^F140H_MUT8 variant L138I; experiment: TAL and PAL enzyme kinetics; conditions: PAL assay (L-Phe), pH 8.5, 30° C.
Experimental: as §4, §1, §2

[9] = test system: Joinvillea ascendens JaPAL^F140H_MUT8 variant S267A; experiment: TAL and PAL enzyme kinetics; conditions: PAL assay (L-Phe), pH 8.5, 30° C.
Experimental: as §4, §1, §2

[10] = test system: Joinvillea ascendens JaPAL^F140H_MUT8 variant T444P; experiment: TAL and PAL enzyme kinetics; conditions: PAL assay (L-Phe), pH 8.5, 30° C.
Experimental: as §4, §1, §2

[11] = test system: Joinvillea ascendens JaPAL^F140H_MUT8 variant V500I; experiment: TAL and PAL enzyme kinetics; conditions: PAL assay (L-Phe), pH 8.5, 30° C.
Experimental: as §4, §1, §2

[12] = test system: Joinvillea ascendens JaPAL variant F140H/S112I (JaPAL^F140H_S112I), SEQ ID NO: 145; experiment: TAL and PAL enzyme kinetics; conditions: PAL assay (L-Phe), pH 8.5, 30° C.
Experimental: (§5) To test this hypothesis further, the reciprocal S112I mutation was introduced into the JaPAL^F140H single mutant to generate the JaPAL^F140H_S112I double mutant. For comparison, a single mutant in which the residue corresponding to Ser112 was converted to Ile (i.e., JaPAL^S112I) was generated as well.
as §1, §2

[13] = test system: Joinvillea ascendens JaPAL variant S112I (JaPAL^S112I), SEQ ID NO: 258; experiment: TAL and PAL enzyme kinetics; conditions: PAL assay (L-Phe), pH 8.5, 30° C.
Experimental: as §5, §1, §2

[14] = test system: PTAL^H140F mutants (SbPTAL^H123F, BdPTAL^H123F, SaPTAL-a^H118F, SaPTAL-b^H126F, EmoPTAL^H127F, JaPTAL^H125F); experiment: TAL and PAL enzyme kinetics, group of enzymes; conditions: on average
Description: To experimentally test the role of His 140 in the acquisition of TAL activity, we next conducted site-directed mutagenesis on the PAL and PTAL enzymes of grasses and non-grass graminids characterized above and analyzed their effects on TAL activity. For the PAL enzymes, the residue corresponding to Phe 140 was converted to His to generate JaPAL^F140H EmoPAL^F134H, BdPAL^F137H, and SbPAL^F135H. […] For the PTAL enzymes, the residue corresponding to His 140 was converted to Phe to generate SbPTAL^H123F, BdPTAL^H123F, SaPTAL-a^H118F, SaPTAL-b^H126F, EmoPTAL^H127F, and JaPTAL^H125F. […] Thus, unlike in the bacterial TAL enzyme (Watts et al., 2006), other residues besides the His 140 are likely important for the acquisition of strong TAL activity in the PTAL enzymes of grasses and closely-related non-grass graminids.
The kinetic parameters of the recombinant enzymes were determined using HPLC. Reaction mixtures containing 100 mM Tris-HCl (pH 8.5), 1% glycerol, and purified enzyme (0.15 μg for PAL assay and 1 μg for TAL assay) in a 50 μl total volume were preincubated for 3 min at 30° C. PAL and TAL reactions were started by addition of 50 μl substrate solution prepared with 0-4 mM L-Phe and 0-2 mM L-Tyr. After 10 min and 20 min incubations for PAL and TAL assay, respectively, at 30° C., the reaction was terminated by addition of 6N acetic acid (10 μl). […] The products were quantified using calibration curves generated using authentic standards. Non-linear hyperbolic regression analyses were conducted using the Excel Solver tool to calculate Km and Vmax values.

[15] = test system: PAL^F140H mutants (JaPAL^F140H, EmoPAL^F134H, BdPAL^F137H, SbPAL^F135H); experiment: TAL and PAL enzyme kinetics, group of enzymes; conditions: PAL activity, on average
Experimental: as §2

[16] = test system: grass PTAL enzymes; experiment: TAL and PAL enzyme kinetics, group of enzymes; conditions: PAL activity (L-Phe), range over grass PTAL enzymes
Experimental: as §2

[17] = PAL assay (L-Phe), pH 8.5, 30° C.

**Q.** Which kcat [1] does the source give for `N[C@@H](Cc1ccccc1)C(=O)O` [L-Phe, phenylalanine] here?
**A.** The kcat was 0.56 ± 0.02 s⁻¹.

**Q.** What about the kcat/Km [1] of the same molecule?
**A.** The kcat/Km was 2460 ± 100 M⁻¹ s⁻¹.

**Q.** What about the Km [2] of the same molecule?
**A.** The Km was 455 ± 4.6 µM.

**Q.** What about the kcat [2] of the same molecule?
**A.** Its kcat is 0.46 ± 0.01 s⁻¹.

**Q.** And the kcat/Km [2]?
**A.** The kcat/Km was 1010 ± 0 M⁻¹ s⁻¹.

**Q.** And the “Km for Phe relative to wild-type JaPTAL” value ([3]; PAL activity, higher than JaPTAL)?
**A.** The value was 2 fold.

**Q.** What about the Km [3, 17] of the same molecule?
**A.** The Km was 141 ± 6.3 µM.

**Q.** What about the kcat [3, 17] of the same molecule?
**A.** Its kcat is 0.60 ± 0.01 s⁻¹.

**Q.** What about the kcat/Km [3, 17] of the same molecule?
**A.** The kcat/Km was 4250 ± 220 M⁻¹ s⁻¹.

**Q.** And the Km [4]?
**A.** Its Km is 168 ± 11.3 µM.

**Q.** And the kcat [4]?
**A.** Its kcat is 0.80 ± 0.03 s⁻¹.

**Q.** What about the kcat/Km [4] of the same molecule?
**A.** The kcat/Km was 4790 ± 430 M⁻¹ s⁻¹.

**Q.** What about the Km [5] of the same molecule?
**A.** Its Km is 58.1 ± 3.4 µM.

**Q.** What about the kcat [5] of the same molecule?
**A.** Its kcat is 0.57 ± 0.02 s⁻¹.

**Q.** And the kcat/Km [5]?
**A.** Its kcat/Km is 9880 ± 310 M⁻¹ s⁻¹.

**Q.** What about the Km [6] of the same molecule?
**A.** Its Km is 232 ± 3.5 µM.

**Q.** And the kcat [6]?
**A.** Its kcat is 0.74 ± 0.01 s⁻¹.

**Q.** What about the kcat/Km [6] of the same molecule?
**A.** The kcat/Km was 3190 ± 80 M⁻¹ s⁻¹.

**Q.** What about the Km [7] of the same molecule?
**A.** Its Km is 2290 ± 344 µM.

**Q.** What about the kcat [7] of the same molecule?
**A.** The kcat was 0.29 ± 0.04 s⁻¹.

**Q.** And the kcat/Km [7]?
**A.** The kcat/Km was 310 ± 0 M⁻¹ s⁻¹.

**Q.** What about the Km [8] of the same molecule?
**A.** Its Km is 74.3 ± 1.1 µM.

**Q.** And the kcat [8]?
**A.** The kcat was 0.66 ± 0.01 s⁻¹.

**Q.** What about the kcat/Km [8] of the same molecule?
**A.** The kcat/Km was 8860 ± 10 M⁻¹ s⁻¹.

**Q.** And the Km [9]?
**A.** The Km was 317 ± 6.6 µM.

**Q.** What about the kcat [9] of the same molecule?
**A.** Its kcat is 0.85 ± 0.04 s⁻¹.

**Q.** What about the kcat/Km [9] of the same molecule?
**A.** Its kcat/Km is 2670 ± 60 M⁻¹ s⁻¹.

**Q.** And the Km [10]?
**A.** Its Km is 192 ± 3.6 µM.

**Q.** What about the kcat [10] of the same molecule?
**A.** The kcat was 0.90 ± 0.05 s⁻¹.

**Q.** And the kcat/Km [10]?
**A.** Its kcat/Km is 4700 ± 220 M⁻¹ s⁻¹.

**Q.** What about the Km [11] of the same molecule?
**A.** Its Km is 151 ± 3.7 µM.

**Q.** And the kcat [11]?
**A.** The kcat was 0.82 ± 0.02 s⁻¹.

**Q.** What about the kcat/Km [11] of the same molecule?
**A.** Its kcat/Km is 5450 ± 140 M⁻¹ s⁻¹.

**Q.** And the Km [12]?
**A.** The Km was 67.3 ± 2.5 µM.

**Q.** And the kcat [12]?
**A.** The kcat was 0.77 ± 0.01 s⁻¹.

**Q.** And the kcat/Km [12]?
**A.** The kcat/Km was 11460 ± 210 M⁻¹ s⁻¹.

**Q.** And the Km [13]?
**A.** Its Km is 2.6 ± 0.5 µM.

**Q.** What about the kcat [13] of the same molecule?
**A.** The kcat was 0.21 ± 0.04 s⁻¹.

**Q.** What about the kcat/Km [13] of the same molecule?
**A.** The kcat/Km was 79800 ± 0 M⁻¹ s⁻¹.

**Q.** What about the “kcat relative to wild type” value ([14]; PAL activity (Phe)) of the same molecule?
**A.** Its value is 0.25 fold.

**Q.** What about the “Km toward Phe relative to corresponding wild-type enzymes” value ([14]; PAL activity) of the same molecule?
**A.** The value was 0.04 fold.

**Q.** And the “Km toward Phe relative to corresponding wild-type enzymes” value [15]?
**A.** Its value is 35 fold.

**Q.** What about the Km [16] of the same molecule?
**A.** The Km was 150 to 227 µM.
